Data on five compounds can be found in patent US11617762B2, “Compositions comprising sulfated polysaccharides” (SEANERGY DERMATOLOGY LTD., priority 2016, dated 2023).

Test [1] concerns TNFα secretion in RAW 264.7 cells. The test can be described thus: LPS-induced TNFα secretion by RAW 264.7 macrophage cells (ELISA). It is filed as cell-based. The note with it: LPS 1 μg/ml, 24 hr. Background: An ELISA detects its analyte on a solid surface through an enzyme-linked reagent.
Experimental: The potential for synergistic interaction was tested by assaying inflammatory mediator secretion by a macrophage cell line (RAW 264.7), following stimulation with lipopolysaccharide (LPS). […] RAW 264.7 monocyte macrophage cells (approximately 4×10^5/ml) were seeded in 24 well plates containing 800 microliters/well of complete growth medium (DMEM containing 2 mM glutamine, 100 U/ml penicillin and 100 μg/ml streptomycin and 10% fetal bovine serum). The cells were then incubated at 37 degrees Celsius with 5% carbon dioxide for 24 h. At the end of this period, growth medium supplemented with 1 μg/ml lipopolysaccharide (LPS) was added to the cells, together with the test substances (SPS, anti-inflammatory drugs and their combinations) and various controls), and the cells were then incubated for a further 24 hr. period under the same conditions as before. Following this incubation period, the conditioned medium was aspirated from the various test and control wells and centrifuged at 14,000 g for 5 minutes to remove particulate matter. The clear supernatants were then stored at −70 degrees Celsius prior to assaying the inflammatory mediatory content therein. The cytokine/mediator content in the thawed supernatants was assayed using standard ELISA kits for TNFα, IL-6 and PGE2 (BioLegend Inc., San Diego, Calif., USA). Method: Raw 264.7 macrophage cells were incubated (as described above) in the absence or presence of LPS and treated without or with the SPS (Porphyridium C. SPS), Dexamethasone or a combination thereof for 24 hr. Then, TNFα levels in the spent medium were quantified by ELISA, as explained above. DMSO were used as vehicle. Methods: Hydrocortisone, Mometasone furoate and Porphyridium SPS were tested alone and in combination, according to the methods described hereinabove, in order to assess the effect of these various treatments on TNFα secretion in RAW 264.7 cells. Methods: Dexamethasone alone, SPS obtained from brown algae and green algae alone, and combinations of dexamethasone with the SPS, were tested, as described hereinabove, in order to assess the effect of these various treatments on TNFα secretion in RAW 264.7 cells.
In test [2] the test system is PGE2 secretion in RAW 264.7 cells. The test can be described thus: LPS-induced prostaglandin E2 secretion by RAW 264.7 macrophage cells (ELISA). It is filed as cell-based.
Experimental: The potential for synergistic interaction was tested by assaying inflammatory mediator secretion by a macrophage cell line (RAW 264.7), following stimulation with lipopolysaccharide (LPS). The inflammatory mediators assayed were: tumor necrosis factor—alpha (TNF-alpha), interleukin 6 (IL-6) and prostaglandin E2 (PGE2). RAW 264.7 monocyte macrophage cells (approximately 4×10^5/ml) were seeded in 24 well plates containing 800 microliters/well of complete growth medium (DMEM containing 2 mM glutamine, 100 U/ml penicillin and 100 μg/ml streptomycin and 10% fetal bovine serum). The cells were then incubated at 37 degrees Celsius with 5% carbon dioxide for 24 h. At the end of this period, growth medium supplemented with 1 μg/ml lipopolysaccharide (LPS) was added to the cells, together with the test substances (SPS, anti-inflammatory drugs and their combinations) and various controls), and the cells were then incubated for a further 24 hr. period under the same conditions as before. Following this incubation period, the conditioned medium was aspirated from the various test and control wells and centrifuged at 14,000 g for 5 minutes to remove particulate matter. The clear supernatants were then stored at −70 degrees Celsius prior to assaying the inflammatory mediatory content therein. The cytokine/mediator content in the thawed supernatants was assayed using standard ELISA kits for TNFα, IL-6 and PGE2 (BioLegend Inc., San Diego, Calif., USA). […] SPS was also investigated on Prostaglandin E2 (PGE2) secretion, as an independent inflammation marker derived from arachidonic acid metabolism. Raw 264.7 macrophage cells were incubated (as described above) in the absence or presence of LPS and treated without or with the SPS (Porphyridium C. SPS), Indomethacin or a combination thereof for 24 hr. Then, PGE2 levels in the supernatant medium were quantified by ELISA, as explained above. DMSO were used as vehicle. […]

For the compound `C[C@@H]1C[C@H]2[C@@H]3CCC4=CC(=O)C=C[C@]4(C)[C@@]3(F)[C@@H](O)C[C@]2(C)[C@@]1(O)C(=O)CO` [Dexamethasone], the inhibition (commonly the share of the control response that was lost under treatment) at 1 µM in test [1] (Mus musculus, RAW264.7, Table 2, TNFα, 1.0 μM alone) turned out to be 34%. The “TNFα concentration (ng/ml)” value in test [1] (Table 2, 1.0 μM alone) is listed as 7,400 ng/ml.

In the case of `O=C(O)Cc1ccccc1Nc1c(Cl)cccc1Cl` [Diclofenac], the inhibition at 0.1 µM in test [2] (Mus musculus, RAW264.7, Table 3, PGE2, 0.1 μM alone, LPS 1 μg/ml, 24 hr) worked out at 7.5%. In test [2] (Table 3, 0.1 μM alone, LPS 1 μg/ml, 24 hr), the PGE2 is 3,700. As to `C[C@]12CCC(=O)C=C1CC[C@@H]1[C@@H]2[C@@H](O)C[C@@]2(C)[C@H]1CC[C@]2(O)C(=O)CO` [Hydrocortisone], in test [1] (Mus musculus, RAW264.7, Table 1, TNFα, 5.0 μM alone, read-out: % inhibition (mean; n = 3)), the inhibition at 5 µM was found to be 27%. The “TNFα concentration (ng/ml)” value in test [1] (Table 1, 5.0 μM alone) is 8,200 ng/ml. Take `C[C@@H]1C[C@H]2[C@@H]3CCC4=CC(=O)C=C[C@]4(C)[C@@]3(Cl)[C@@H](O)C[C@]2(C)[C@@]1(OC(=O)c1ccco1)C(=O)CCl` [Mometasone furoate]: the inhibition at 0.5 µM in test [1] (Mus musculus, RAW264.7, Table 1, TNFα, 0.5 μM alone, read-out: % inhibition (mean; n = 3)) amounted to 32%. The “TNFα concentration (ng/ml)” value in test [1] (Table 1, 0.5 μM alone) is 7,600 ng/ml. `COc1ccc2c(c1)c(CC(=O)O)c(C)n2C(=O)c1ccc(Cl)cc1` [indomethacin, Indomethacin]: in test [2] (Example 3, FIG. 3, used alone), the “effect on LPS-stimulated Prostaglandin E2 secretion (in words)” value is “inhibited LPS-stimulated Prostaglandin E2 secretion to a certain degree, although this effect was not statistically significant”.
